Experiments:
Assay in all cases: Test E pre-/postemergence greenhouse herbicide test
Type in all cases: in vivo
[1] = system: kochia (Kochia scoparia); settings: Preemergence, scale 0 to 100
Source text: (§1) Seeds of plant species selected from corn (Zea mays), soybean (Glycine max), lambsquarters (Chenopodium album), poinsettia, wild (wild poinsettia, Euphorbia heterophylla), pigweed, palmer (palmer pigweed, Amaranthus palmeri), waterhemp (common waterhemp, Amaranthus rudis), surinam grass (Brachiaria decumbens), crabgrass, large (large crabgrass Digitaria sanguinalis), crabgrass, Brazil (Brazilian crabgrass, Digitaria horizontalis), panicum, fall (fall panicum, Panicum dichotomiflorum), foxtail, giant (giant foxtail, Setaria faberii), foxtail, green (green foxtail, Setaria viridis), goosegrass (Eleusine indica), johnsongrass (Sorghum halepense), ragweed (common ragweed, Ambrosia elatior), barnyardgrass (Echinochloa crus-galli), sandbur (southern sandbur, Cenchrus echinatus), arrowleaf sida (Sida rhombifolia), ryegrass, Italian (Italian ryegrass, Lolium multiflorum), dayflower, VA (Virginia dayflower, Commelina virginica), field bindweed (Convolvulus arvensis), cocklebur (common cocklebur, Xanthium strumarium), morningglory (Ipomoea coccinea), nightshade (eastern black nightshade, Solanum ptycanthum), kochia (Kochia scoparia), nutsedge, yellow (yellow nutsedge, Cyperus esculentus), smartweed (ladysthumb smartweed, Polygonum persicaria), velvetleaf (Abutilon theophrasti), and beggarticks (hairy beggarticks, Bidens pilosa), were planted into a silt loam soil and treated preemergence with test chemicals formulated in a non-phytotoxic solvent mixture which included a surfactant.
(§2) At the same time, plants from these crop and weed species and also waterhemp_RES1, (ALS & Triazine resistant common waterhemp, Amaranthus rudis), and waterhemp_RES2, (ALS & HPPD resistant common waterhemp, Amaranthus rudis) were planted in pots containing Redi-Earth® planting medium (Scotts Company, 14111 Scottslawn Road, Marysville, Ohio 43041) comprising spaghnum peat moss, vermiculite, wetting agent and starter nutrients were treated with postemergence applications of test chemicals formulated in the same manner. Plants ranged in height from 2 to 18 cm for postemergence treatments (1- to 4-leaf stage). Treated plants and controls were maintained in a greenhouse for 14 to 21 d, after which time all species were compared to controls and visually evaluated. Plant response ratings, summarized in Table E, are based on a scale of 0 to 100 where 0 is no effect and 100 is complete control. A dash (-) response means no test result.

[2] = system: morningglory (Ipomoea coccinea); settings: Preemergence, scale 0 to 100
Source text: as §1, §2

[3] = system: panicum, fall (fall panicum, Panicum dichotomiflorum); settings: scale 0 to 100
Source text: as §1, §2

[4] = system: foxtail, green (green foxtail, Setaria viridis); settings: Preemergence, scale 0 to 100
Source text: as §1, §2

[5] = system: sandbur (southern sandbur, Cenchrus echinatus); settings: scale 0 to 100
Source text: as §1, §2

[6] = system: arrowleaf sida (Sida rhombifolia); settings: scale 0 to 100
Source text: as §1, §2

[7] = system: field bindweed (Convolvulus arvensis); settings: scale 0 to 100
Source text: as §1, §2

[8] = system: dayflower, VA (Virginia dayflower, Commelina virginica); settings: scale 0 to 100
Source text: as §1, §2

[9] = system: velvetleaf (Abutilon theophrasti); settings: Preemergence, scale 0 to 100
Source text: as §1, §2

[10] = system: ryegrass, Italian (Italian ryegrass, Lolium multiflorum); settings: scale 0 to 100
Source text: as §1, §2

[11] = system: ragweed (common ragweed, Ambrosia elatior); settings: Preemergence, scale 0 to 100
Source text: as §1, §2

[12] = system: crabgrass, Brazil (Brazilian crabgrass, Digitaria horizontalis); settings: scale 0 to 100
Source text: as §1, §2

[13] = system: nightshade (eastern black nightshade, Solanum ptycanthum); settings: Preemergence, scale 0 to 100
Source text: as §1, §2

[14] = system: waterhemp (common waterhemp, Amaranthus rudis); settings: scale 0 to 100
Source text: as §1, §2

[15] = system: soybean (Glycine max); settings: scale 0 to 100
Source text: as §1, §2

[16] = system: lambsquarters (Chenopodium album); settings: Preemergence, scale 0 to 100
Source text: as §1, §2

COc1cc(=O)n(-c2ccc(C(F)(F)F)cc2)nc1Cc1ccnc(C(F)(F)F)c1 [Compound 16, 5-methoxy-2-[4-(trifluoromethyl)phenyl]-6-[[2-(trifluoromethyl)-4-pyridinyl]methyl]-3(2H)-pyridazinone]
Plant response rating: Kochia ([1]; 62 g ai/ha): 98
Plant response rating: Kochia ([1]; 125 g ai/ha): 98
Plant response rating: Kochia ([1]; 250 g ai/ha): 98
Plant response rating: Morningglory ([2]; 62 g ai/ha): 25
Plant response rating: Morningglory ([2]; 125 g ai/ha): 65
Plant response rating: Morningglory ([2]; 250 g ai/ha): 80
Plant response rating: Panicum, Fall ([3]; Postemergence, 62 g ai/ha): 30
Plant response rating: Panicum, Fall ([3]; Postemergence, 125 g ai/ha): 40
Plant response rating: Panicum, Fall ([3]; Postemergence, 250 g ai/ha): 50
Plant response rating: Panicum, Fall ([3]; Preemergence, 62 g ai/ha): 50
Plant response rating: Panicum, Fall ([3]; Preemergence, 125 g ai/ha): 90
Plant response rating: Panicum, Fall ([3]; Preemergence, 250 g ai/ha): 100
Plant response rating: Foxtail, Green ([4]; 62 g ai/ha): 50
Plant response rating: Foxtail, Green ([4]; 125 g ai/ha): 95
Plant response rating: Foxtail, Green ([4]; 250 g ai/ha): 100
Plant response rating: Sandbur ([5]; Postemergence, 62 g ai/ha): 30
Plant response rating: Sandbur ([5]; Postemergence, 125 g ai/ha): 35
Plant response rating: Sandbur ([5]; Postemergence, 250 g ai/ha): 50
Plant response rating: Sandbur ([5]; Preemergence, 62 g ai/ha): 40
Plant response rating: Sandbur ([5]; Preemergence, 125 g ai/ha): 65
Plant response rating: Sandbur ([5]; Preemergence, 250 g ai/ha): 80
Plant response rating: Arrowleaf Sida ([6]; Postemergence, 62 g ai/ha): 60
Plant response rating: Arrowleaf Sida ([6]; Postemergence, 250 g ai/ha): 80
Plant response rating: Arrowleaf Sida ([6]; Preemergence, 62 g ai/ha): 0
Plant response rating: Arrowleaf Sida ([6]; Preemergence, 125 g ai/ha): 0
Plant response rating: Arrowleaf Sida ([6]; Preemergence, 250 g ai/ha): 5
Plant response rating: Field Bindweed ([7]; Postemergence, 62 g ai/ha): 50
Plant response rating: Field Bindweed ([7]; Postemergence, 125 g ai/ha): 65
Plant response rating: Field Bindweed ([7]; Postemergence, 250 g ai/ha): 75
Plant response rating: Field Bindweed ([7]; Preemergence, 62 g ai/ha): 5
Plant response rating: Field Bindweed ([7]; Preemergence, 125 g ai/ha): 30
Plant response rating: Field Bindweed ([7]; Preemergence, 250 g ai/ha): 100
Plant response rating: Dayflower, VA ([8]; Postemergence, 62 g ai/ha): 20
Plant response rating: Dayflower, VA ([8]; Postemergence, 125 g ai/ha): 60
Plant response rating: Dayflower, VA ([8]; Postemergence, 250 g ai/ha): 70
Plant response rating: Dayflower, VA ([8]; Preemergence, 62 g ai/ha): 5
Plant response rating: Dayflower, VA ([8]; Preemergence, 125 g ai/ha): 20
Plant response rating: Dayflower, VA ([8]; Preemergence, 250 g ai/ha): 65
Plant response rating: Velvetleaf ([9]; 62 g ai/ha): 0
Plant response rating: Velvetleaf ([9]; 125 g ai/ha): 0
Plant response rating: Velvetleaf ([9]; 250 g ai/ha): 50
Plant response rating: Ryegrass, Italian ([10]; Postemergence, 62 g ai/ha): 20
Plant response rating: Ryegrass, Italian ([10]; Postemergence, 125 g ai/ha): 20
Plant response rating: Ryegrass, Italian ([10]; Postemergence, 250 g ai/ha): 40
Plant response rating: Ryegrass, Italian ([10]; Preemergence, 62 g ai/ha): 20
Plant response rating: Ryegrass, Italian ([10]; Preemergence, 125 g ai/ha): 20
Plant response rating: Ryegrass, Italian ([10]; Preemergence, 250 g ai/ha): 50
Plant response rating: Ragweed ([11]; 62 g ai/ha): 0
Plant response rating: Ragweed ([11]; 125 g ai/ha): 0
Plant response rating: Ragweed ([11]; 250 g ai/ha): 95
Plant response rating: Crabgrass, Brazil ([12]; Postemergence, 62 g ai/ha): 20
Plant response rating: Crabgrass, Brazil ([12]; Postemergence, 125 g ai/ha): 30
Plant response rating: Crabgrass, Brazil ([12]; Postemergence, 250 g ai/ha): 50
Plant response rating: Crabgrass, Brazil ([12]; Preemergence, 62 g ai/ha): 100
Plant response rating: Crabgrass, Brazil ([12]; Preemergence, 125 g ai/ha): 100
Plant response rating: Crabgrass, Brazil ([12]; Preemergence, 250 g ai/ha): 100
Plant response rating: Nightshade ([13]; 62 g ai/ha): 80
Plant response rating: Nightshade ([13]; 125 g ai/ha): 100
Plant response rating: Nightshade ([13]; 250 g ai/ha): 100
Plant response rating: Waterhemp ([14]; Postemergence, 62 g ai/ha): 80
Plant response rating: Waterhemp ([14]; Postemergence, 125 g ai/ha): 80
Plant response rating: Waterhemp ([14]; Postemergence, 250 g ai/ha): 100
Plant response rating: Waterhemp ([14]; Preemergence, 62 g ai/ha): 100
Plant response rating: Waterhemp ([14]; Preemergence, 125 g ai/ha): 100
Plant response rating: Waterhemp ([14]; Preemergence, 250 g ai/ha): 100
Plant response rating: Soybean ([15]; Postemergence, 62 g ai/ha): 35
Plant response rating: Soybean ([15]; Postemergence, 125 g ai/ha): 50
Plant response rating: Soybean ([15]; Postemergence, 250 g ai/ha): 85
Plant response rating: Soybean ([15]; Preemergence, 62 g ai/ha): 0
Plant response rating: Soybean ([15]; Preemergence, 125 g ai/ha): 20
Plant response rating: Soybean ([15]; Preemergence, 250 g ai/ha): 50
Plant response rating: Lambsquarters ([16]; 62 g ai/ha): 98
Plant response rating: Lambsquarters ([16]; 125 g ai/ha): 98
Plant response rating: Lambsquarters ([16]; 250 g ai/ha): 100
